Experimental data as given in the NIST ThermoML archive (doi:10.1021/je900210h).
Where “and” joins values, the source holds several entries; their conditions need not be identical. Identical values can stand only once.

Settings: Fluid (supercritical or subcritical phases), Coaxial cylinder method

FCC(F)(F)F [1,1,1,2-tetrafluoroethane]
Settings | thermal conductivity
377.87 K, 4339 kPa | 0.0617 W/m/K
377.87 K, 4470 kPa | 0.0614 W/m/K
377.87 K, 4479 kPa | 0.0606 W/m/K
377.89 K, 4330 kPa | 0.0583 W/m/K
377.89 K, 4518 kPa | 0.0587 W/m/K
377.89 K, 4531 kPa | 0.0582 W/m/K
377.9 K, 4541 kPa | 0.0575 W/m/K
377.9 K, 4551 kPa | 0.057 W/m/K
377.9 K, 4561 kPa | 0.0566 W/m/K
377.9 K, 4582 kPa | 0.0563 W/m/K
377.91 K, 4321 kPa | 0.0557 W/m/K
377.93 K, 4309 kPa | 0.0521 W/m/K
377.93 K, 4800 kPa | 0.0547 W/m/K
377.93 K, 4851 kPa | 0.0547 W/m/K
377.95 K, 4301 kPa | 0.0503 W/m/K
377.96 K, 6000 kPa | 0.0569 W/m/K
377.97 K, 4302 kPa | 0.0487 W/m/K
378.02 K, 4500 kPa | 0.0601 W/m/K
378.05 K, 7003 kPa | 0.0589 W/m/K
378.07 K, 180 kPa | 0.02003 W/m/K
378.07 K, 6502 kPa | 0.058 W/m/K
378.11 K, 5504 kPa | 0.056 W/m/K
378.16 K, 8004 kPa | 0.0605 W/m/K
378.18 K, 7450 kPa | 0.0597 W/m/K
378.24 K, 10507 kPa | 0.064 W/m/K
378.25 K, 4395 kPa | 0.0667 W/m/K
378.25 K, 4400 kPa | 0.0667 W/m/K
378.25 K, 9919 kPa | 0.0632 W/m/K
378.25 K, 21005 kPa | 0.0736 W/m/K
378.26 K, 4380 kPa | 0.0657 W/m/K
378.26 K, 4390 kPa | 0.0664 W/m/K
378.26 K, 4410 kPa | 0.0667 W/m/K
378.26 K, 4420 kPa | 0.0661 W/m/K
378.26 K, 4430 kPa | 0.0655 W/m/K
378.26 K, 9506 kPa | 0.0627 W/m/K
378.27 K, 4370 kPa | 0.0645 W/m/K
378.27 K, 4440 kPa | 0.0645 W/m/K
378.27 K, 4450 kPa | 0.0639 W/m/K
378.27 K, 4460 kPa | 0.0633 W/m/K
378.27 K, 9008 kPa | 0.062 W/m/K
378.27 K, 18500 kPa | 0.0716 W/m/K
378.28 K, 4360 kPa | 0.0622 W/m/K
378.28 K, 4470 kPa | 0.0625 W/m/K
378.28 K, 4480 kPa | 0.0616 W/m/K
378.29 K, 4350 kPa | 0.0597 W/m/K
378.29 K, 4490 kPa | 0.0611 W/m/K
378.29 K, 4500 kPa | 0.0608 W/m/K
378.29 K, 4510 kPa | 0.0603 W/m/K
378.29 K, 4520 kPa | 0.0601 W/m/K
378.29 K, 4530 kPa | 0.0598 W/m/K
378.29 K, 8408 kPa | 0.0612 W/m/K
378.29 K, 16500 kPa | 0.0701 W/m/K
378.3 K, 4540 kPa | 0.0595 W/m/K
378.3 K, 4550 kPa | 0.0593 W/m/K
378.3 K, 4570 kPa | 0.0588 W/m/K
378.3 K, 4590 kPa | 0.0585 W/m/K
378.31 K, 4340 kPa | 0.057 W/m/K
378.31 K, 4620 kPa | 0.0581 W/m/K
378.31 K, 4626 kPa | 0.0578 W/m/K
378.31 K, 4650 kPa | 0.0573 W/m/K
378.31 K, 4688 kPa | 0.0571 W/m/K
378.31 K, 4730 kPa | 0.0569 W/m/K
378.31 K, 14505 kPa | 0.0683 W/m/K
378.32 K, 4770 kPa | 0.0567 W/m/K
378.33 K, 4330 kPa | 0.0547 W/m/K
378.33 K, 13441 kPa | 0.0674 W/m/K
378.34 K, 12420 kPa | 0.0663 W/m/K
378.35 K, 4320 kPa | 0.0524 W/m/K
378.36 K, 4310 kPa | 0.0506 W/m/K
378.36 K, 11376 kPa | 0.065 W/m/K
378.37 K, 10981 kPa | 0.0646 W/m/K
378.38 K, 4300 kPa | 0.0488 W/m/K
378.4 K, 4290 kPa | 0.0472 W/m/K
378.41 K, 4280 kPa | 0.0461 W/m/K
378.43 K, 4260 kPa | 0.0438 W/m/K
378.45 K, 4240 kPa | 0.0422 W/m/K
378.47 K, 4220 kPa | 0.0408 W/m/K
378.49 K, 4200 kPa | 0.0395 W/m/K
378.5 K, 4180 kPa | 0.0385 W/m/K
378.53 K, 4140 kPa | 0.0368 W/m/K
378.53 K, 4150 kPa | 0.0371 W/m/K
378.54 K, 4130 kPa | 0.0364 W/m/K
378.59 K, 4860 kPa | 0.0565 W/m/K
378.59 K, 4900 kPa | 0.0565 W/m/K
378.63 K, 440 kPa | 0.02017 W/m/K
378.74 K, 180 kPa | 0.02012 W/m/K
378.81 K, 4120 kPa | 0.036 W/m/K
378.83 K, 4090 kPa | 0.0351 W/m/K
378.85 K, 4050 kPa | 0.0339 W/m/K
378.9 K, 330 kPa | 0.02026 W/m/K
378.9 K, 3950 kPa | 0.0317 W/m/K
379.09 K, 4452 kPa | 0.0625 W/m/K
379.09 K, 4460 kPa | 0.0627 W/m/K
379.09 K, 4464 kPa | 0.063 W/m/K
379.09 K, 4470 kPa | 0.063 W/m/K
379.09 K, 4475 kPa | 0.063 W/m/K
379.09 K, 4484 kPa | 0.063 W/m/K
379.09 K, 4500 kPa | 0.0627 W/m/K
379.1 K, 4331 kPa | 0.0441 W/m/K
379.17 K, 300 kPa | 0.02023 W/m/K
379.22 K, 4504 kPa | 0.0628 W/m/K
379.23 K, 4452 kPa | 0.0608 W/m/K
379.23 K, 4453 kPa | 0.0614 W/m/K
379.23 K, 4520 kPa | 0.062 W/m/K
379.23 K, 4530 kPa | 0.0615 W/m/K
379.24 K, 4540 kPa | 0.0609 W/m/K
379.24 K, 4547 kPa | 0.0606 W/m/K
379.24 K, 4560 kPa | 0.0601 W/m/K
379.24 K, 4570 kPa | 0.0599 W/m/K
379.25 K, 4442 kPa | 0.0593 W/m/K
379.25 K, 4600 kPa | 0.0591 W/m/K
379.25 K, 4620 kPa | 0.0587 W/m/K
379.25 K, 4642 kPa | 0.0584 W/m/K
379.26 K, 4431 kPa | 0.0573 W/m/K
379.26 K, 4662 kPa | 0.0579 W/m/K
379.26 K, 4680 kPa | 0.0577 W/m/K
379.26 K, 4703 kPa | 0.0575 W/m/K
379.26 K, 4739 kPa | 0.0573 W/m/K
379.26 K, 4766 kPa | 0.0573 W/m/K
379.26 K, 4806 kPa | 0.057 W/m/K
379.27 K, 4424 kPa | 0.0559 W/m/K
379.28 K, 4414 kPa | 0.0545 W/m/K
379.29 K, 4404 kPa | 0.053 W/m/K
379.3 K, 4396 kPa | 0.0516 W/m/K
379.32 K, 4386 kPa | 0.0501 W/m/K
379.33 K, 4376 kPa | 0.0487 W/m/K
379.34 K, 4369 kPa | 0.0478 W/m/K
379.36 K, 4355 kPa | 0.0462 W/m/K
379.37 K, 4346 kPa | 0.0453 W/m/K
379.39 K, 4330 kPa | 0.0437 W/m/K
379.4 K, 4309 kPa | 0.0422 W/m/K
379.4 K, 4317 kPa | 0.0427 W/m/K
379.4 K, 4838 kPa | 0.0567 W/m/K
379.4 K, 4888 kPa | 0.0562 W/m/K
379.41 K, 4932 kPa | 0.0558 W/m/K
379.41 K, 5000 kPa | 0.0554 W/m/K
379.41 K, 5051 kPa | 0.055 W/m/K
379.42 K, 4288 kPa | 0.0408 W/m/K
379.43 K, 150 kPa | 0.02035 W/m/K
379.43 K, 154 kPa | 0.0231 W/m/K
379.43 K, 4282 kPa | 0.0405 W/m/K
379.45 K, 4254 kPa | 0.0389 W/m/K
379.47 K, 4224 kPa | 0.0376 W/m/K
379.48 K, 4200 kPa | 0.0367 W/m/K
379.5 K, 4165 kPa | 0.0355 W/m/K
379.5 K, 4175 kPa | 0.0358 W/m/K
379.72 K, 160 kPa | 0.01996 W/m/K
381.53 K, 4627 kPa | 0.0551 W/m/K
381.53 K, 4640 kPa | 0.0555 W/m/K
381.53 K, 4650 kPa | 0.056 W/m/K
381.53 K, 4660 kPa | 0.0562 W/m/K
381.53 K, 4670 kPa | 0.0565 W/m/K
381.53 K, 4680 kPa | 0.0565 W/m/K
381.54 K, 4700 kPa | 0.0562 W/m/K
381.54 K, 4760 kPa | 0.056 W/m/K
381.55 K, 4612 kPa | 0.0542 W/m/K
381.55 K, 4780 kPa | 0.0558 W/m/K
381.55 K, 4800 kPa | 0.0555 W/m/K
381.55 K, 4815 kPa | 0.0553 W/m/K
381.56 K, 4600 kPa | 0.0536 W/m/K
381.56 K, 4830 kPa | 0.0551 W/m/K
381.56 K, 4860 kPa | 0.0549 W/m/K
381.56 K, 4900 kPa | 0.0542 W/m/K
381.56 K, 4920 kPa | 0.0542 W/m/K
381.56 K, 4950 kPa | 0.0543 W/m/K
381.56 K, 4982 kPa | 0.0543 W/m/K
381.56 K, 5016 kPa | 0.0543 W/m/K
381.56 K, 5068 kPa | 0.0543 W/m/K
381.57 K, 5092 kPa | 0.0539 W/m/K
381.57 K, 5125 kPa | 0.0538 W/m/K
381.57 K, 5136 kPa | 0.0538 W/m/K
381.57 K, 5169 kPa | 0.0536 W/m/K
381.57 K, 5201 kPa | 0.0536 W/m/K
381.58 K, 4569 kPa | 0.0518 W/m/K
381.6 K, 4530 kPa | 0.0495 W/m/K
381.61 K, 4516 kPa | 0.0483 W/m/K
381.61 K, 4520 kPa | 0.0487 W/m/K
381.61 K, 4525 kPa | 0.049 W/m/K
381.62 K, 4510 kPa | 0.0478 W/m/K
381.63 K, 4490 kPa | 0.0464 W/m/K
381.63 K, 4500 kPa | 0.0472 W/m/K and 0.0468 W/m/K
385.18 K, 4940 kPa | 0.0522 W/m/K
